From PMC5923399 (Marine Drugs, 2018)
Like-named read-outs stand apart in the source and are kept apart here. Where a SMILES comes first, the peptide text is derived from it. Bridges are numbered along the chain shown (N, C = ends).

Columns and labels:
[1] = biological target: T1, GABABR-coupled Cav2.2 (Homo sapiens, UniProt O75899+Q9UBS5); assay: cell-based; set-up: species or system human GABABR and rat Cav2.2
T1 construct: expressed in transfected cells; host or cells: HEK293T cells, transient transfection; GABAB subunit plasmids from David J. Adams, University of Wollongong

[2] = biological target: T2, rat α3β2 nAChRs (Rattus norvegicus, UniProt P04757+P12390); assay: cell-based
T2 construct: expressed in transfected cells; host or cells: Xenopus oocytes (cRNA injection)

[3] = biological target: T3, α9α10 nAChR (Rattus norvegicus, UniProt P43144+Q9JLB5); settings: read-out: IC50 α9α10; cited from earlier work
T3 construct: expressed in transfected cells; host or cells: Xenopus oocytes (cRNA injection)

[4] = biological target: T4, α4β2 nAChR (Rattus norvegicus, UniProt P09483+P12390); assay: cell-based
T4 construct: expressed in transfected cells; host or cells: Xenopus oocytes (cRNA injection)

[5] = biological target: T5, α7 nAChR (Rattus norvegicus, UniProt Q05941); assay: cell-based
T5 construct: expressed in transfected cells; host or cells: Xenopus oocytes (cRNA injection)

[6] = biological target: T6, α3β4 nAChR (Rattus norvegicus, UniProt P04757+P12392); assay: cell-based
T6 construct: expressed in transfected cells; host or cells: Xenopus oocytes (cRNA injection)

[7] = biological target: T7, α4β4 nAChR (Rattus norvegicus, UniProt P09483+P12392); assay: cell-based
T7 construct: expressed in transfected cells; host or cells: Xenopus oocytes (cRNA injection)

[8] = biological target: T3, α9α10 nAChR; assay: cell-based
[9] = biological target: T8, α2β2 nAChR (Rattus norvegicus, UniProt P12389+P12390); assay: cell-based
T8 construct: expressed in transfected cells; host or cells: Xenopus oocytes (cRNA injection)

[10] = biological target: T9, α2β4 nAChR (Rattus norvegicus, UniProt P12389+P12392); assay: cell-based
T9 construct: expressed in transfected cells; host or cells: Xenopus oocytes (cRNA injection)

T1 sequence (Q9UBS5 15-961 limits assumed): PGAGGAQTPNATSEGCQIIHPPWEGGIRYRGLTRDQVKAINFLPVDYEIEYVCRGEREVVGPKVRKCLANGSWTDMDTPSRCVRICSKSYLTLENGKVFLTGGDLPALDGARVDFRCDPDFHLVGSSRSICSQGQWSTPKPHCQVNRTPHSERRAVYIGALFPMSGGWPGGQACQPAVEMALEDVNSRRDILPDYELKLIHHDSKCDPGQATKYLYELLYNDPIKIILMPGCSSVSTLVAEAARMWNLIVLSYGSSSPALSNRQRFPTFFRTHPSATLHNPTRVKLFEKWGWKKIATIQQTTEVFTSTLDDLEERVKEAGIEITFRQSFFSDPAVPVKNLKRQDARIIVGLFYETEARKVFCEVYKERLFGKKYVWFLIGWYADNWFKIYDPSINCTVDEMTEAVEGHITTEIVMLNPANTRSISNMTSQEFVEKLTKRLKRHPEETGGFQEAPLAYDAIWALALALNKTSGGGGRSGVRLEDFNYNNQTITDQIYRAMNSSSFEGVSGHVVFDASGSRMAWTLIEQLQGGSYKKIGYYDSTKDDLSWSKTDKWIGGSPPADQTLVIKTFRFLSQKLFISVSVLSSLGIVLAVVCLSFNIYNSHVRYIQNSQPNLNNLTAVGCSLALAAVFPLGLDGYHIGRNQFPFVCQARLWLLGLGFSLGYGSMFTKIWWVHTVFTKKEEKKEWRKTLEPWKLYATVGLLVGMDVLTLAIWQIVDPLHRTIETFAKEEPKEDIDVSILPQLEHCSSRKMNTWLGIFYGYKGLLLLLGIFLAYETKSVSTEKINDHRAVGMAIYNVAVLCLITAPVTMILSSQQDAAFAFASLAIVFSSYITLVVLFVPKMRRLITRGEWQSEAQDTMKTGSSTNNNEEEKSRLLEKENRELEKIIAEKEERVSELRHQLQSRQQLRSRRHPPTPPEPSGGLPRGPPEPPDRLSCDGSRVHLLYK
T1 sequence (O75899 42-941): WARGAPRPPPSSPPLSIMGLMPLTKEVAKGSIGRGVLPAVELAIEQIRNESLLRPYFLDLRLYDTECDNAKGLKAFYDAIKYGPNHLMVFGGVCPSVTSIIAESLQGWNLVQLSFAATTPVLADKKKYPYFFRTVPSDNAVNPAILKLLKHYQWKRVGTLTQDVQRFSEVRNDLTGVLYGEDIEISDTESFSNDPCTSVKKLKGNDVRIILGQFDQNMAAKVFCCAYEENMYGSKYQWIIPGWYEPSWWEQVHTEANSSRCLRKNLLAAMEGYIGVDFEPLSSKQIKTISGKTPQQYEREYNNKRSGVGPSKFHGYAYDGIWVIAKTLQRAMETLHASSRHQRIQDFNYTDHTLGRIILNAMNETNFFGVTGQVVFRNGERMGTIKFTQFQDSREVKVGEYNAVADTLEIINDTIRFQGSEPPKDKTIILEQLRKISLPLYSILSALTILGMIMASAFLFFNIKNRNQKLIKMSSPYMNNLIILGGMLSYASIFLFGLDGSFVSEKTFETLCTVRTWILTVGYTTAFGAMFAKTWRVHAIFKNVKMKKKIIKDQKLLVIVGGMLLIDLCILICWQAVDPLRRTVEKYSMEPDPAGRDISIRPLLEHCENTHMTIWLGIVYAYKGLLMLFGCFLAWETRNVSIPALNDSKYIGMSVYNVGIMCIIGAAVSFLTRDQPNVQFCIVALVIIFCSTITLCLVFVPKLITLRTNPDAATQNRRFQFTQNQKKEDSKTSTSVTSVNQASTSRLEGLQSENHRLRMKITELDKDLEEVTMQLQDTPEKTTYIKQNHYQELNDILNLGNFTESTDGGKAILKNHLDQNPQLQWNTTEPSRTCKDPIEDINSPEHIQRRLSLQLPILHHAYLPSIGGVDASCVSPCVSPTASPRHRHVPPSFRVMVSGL
T2 sequence (P04757 26-499 limits assumed): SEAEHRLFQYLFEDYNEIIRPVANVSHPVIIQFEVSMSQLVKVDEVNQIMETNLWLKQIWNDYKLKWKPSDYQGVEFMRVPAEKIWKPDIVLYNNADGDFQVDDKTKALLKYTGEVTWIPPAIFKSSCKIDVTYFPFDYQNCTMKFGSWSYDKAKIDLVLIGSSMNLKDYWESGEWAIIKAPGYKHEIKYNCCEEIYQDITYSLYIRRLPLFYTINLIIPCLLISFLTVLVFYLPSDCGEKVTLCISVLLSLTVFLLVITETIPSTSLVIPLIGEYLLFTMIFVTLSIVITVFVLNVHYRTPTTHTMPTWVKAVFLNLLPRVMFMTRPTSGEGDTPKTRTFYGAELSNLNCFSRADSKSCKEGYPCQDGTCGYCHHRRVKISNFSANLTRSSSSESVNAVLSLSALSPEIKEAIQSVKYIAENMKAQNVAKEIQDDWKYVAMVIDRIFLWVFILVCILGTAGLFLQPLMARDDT
T2 sequence (P12390 25-500 limits assumed): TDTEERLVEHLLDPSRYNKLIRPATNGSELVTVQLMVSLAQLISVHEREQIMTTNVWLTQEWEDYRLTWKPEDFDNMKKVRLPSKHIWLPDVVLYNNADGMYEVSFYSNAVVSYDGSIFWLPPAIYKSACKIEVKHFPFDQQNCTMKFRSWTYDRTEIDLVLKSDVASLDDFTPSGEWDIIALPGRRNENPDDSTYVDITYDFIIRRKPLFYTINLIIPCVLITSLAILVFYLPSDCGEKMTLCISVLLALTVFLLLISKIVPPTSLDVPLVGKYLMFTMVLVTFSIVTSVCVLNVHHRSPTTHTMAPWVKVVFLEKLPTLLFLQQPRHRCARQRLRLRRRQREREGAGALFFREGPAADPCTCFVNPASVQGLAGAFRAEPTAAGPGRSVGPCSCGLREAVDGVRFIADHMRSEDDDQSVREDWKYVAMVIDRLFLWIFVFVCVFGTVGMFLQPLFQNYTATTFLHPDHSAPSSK
T3 sequence (P43144 26-479 limits assumed): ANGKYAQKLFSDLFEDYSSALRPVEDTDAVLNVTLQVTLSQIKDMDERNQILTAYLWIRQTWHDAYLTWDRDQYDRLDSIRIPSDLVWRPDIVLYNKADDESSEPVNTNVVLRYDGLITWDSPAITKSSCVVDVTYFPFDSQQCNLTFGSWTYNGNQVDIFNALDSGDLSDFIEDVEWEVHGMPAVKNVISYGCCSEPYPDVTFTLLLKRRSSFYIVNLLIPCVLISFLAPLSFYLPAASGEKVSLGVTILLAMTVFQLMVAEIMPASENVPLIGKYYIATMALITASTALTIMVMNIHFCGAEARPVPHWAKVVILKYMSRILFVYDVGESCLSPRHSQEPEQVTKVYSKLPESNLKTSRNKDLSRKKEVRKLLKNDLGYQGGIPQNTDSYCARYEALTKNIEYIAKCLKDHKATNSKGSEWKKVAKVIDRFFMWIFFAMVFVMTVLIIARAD
T3 sequence (Q9JLB5 25-447 limits assumed): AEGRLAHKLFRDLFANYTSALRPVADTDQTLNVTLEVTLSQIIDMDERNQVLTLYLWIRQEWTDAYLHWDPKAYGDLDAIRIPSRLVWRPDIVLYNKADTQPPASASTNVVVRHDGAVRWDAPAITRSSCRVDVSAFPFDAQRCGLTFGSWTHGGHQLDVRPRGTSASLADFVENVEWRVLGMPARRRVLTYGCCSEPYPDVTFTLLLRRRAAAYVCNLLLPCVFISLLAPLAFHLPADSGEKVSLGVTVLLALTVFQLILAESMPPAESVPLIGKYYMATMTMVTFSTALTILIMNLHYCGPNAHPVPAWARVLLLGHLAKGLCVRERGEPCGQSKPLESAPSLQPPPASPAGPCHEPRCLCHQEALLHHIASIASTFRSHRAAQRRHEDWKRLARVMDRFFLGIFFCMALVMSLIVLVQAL
T6 sequence (P04757 26-499 limits assumed): as the sequence (P04757 26-499 limits assumed) above
T6 sequence (P12392 21-495 limits assumed): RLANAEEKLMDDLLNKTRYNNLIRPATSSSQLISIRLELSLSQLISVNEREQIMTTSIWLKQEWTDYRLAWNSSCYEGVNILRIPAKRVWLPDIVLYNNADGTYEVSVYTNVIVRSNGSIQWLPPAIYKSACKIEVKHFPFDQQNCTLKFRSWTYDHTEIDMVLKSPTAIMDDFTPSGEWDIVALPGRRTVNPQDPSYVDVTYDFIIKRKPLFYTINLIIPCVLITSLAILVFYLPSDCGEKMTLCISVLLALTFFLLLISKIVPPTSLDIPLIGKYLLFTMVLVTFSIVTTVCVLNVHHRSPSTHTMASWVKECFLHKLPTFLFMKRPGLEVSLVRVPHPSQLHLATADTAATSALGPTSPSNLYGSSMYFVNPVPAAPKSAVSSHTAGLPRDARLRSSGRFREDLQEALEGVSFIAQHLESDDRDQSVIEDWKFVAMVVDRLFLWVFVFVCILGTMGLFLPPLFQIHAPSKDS
T7 sequence (P09483 31-630 limits assumed): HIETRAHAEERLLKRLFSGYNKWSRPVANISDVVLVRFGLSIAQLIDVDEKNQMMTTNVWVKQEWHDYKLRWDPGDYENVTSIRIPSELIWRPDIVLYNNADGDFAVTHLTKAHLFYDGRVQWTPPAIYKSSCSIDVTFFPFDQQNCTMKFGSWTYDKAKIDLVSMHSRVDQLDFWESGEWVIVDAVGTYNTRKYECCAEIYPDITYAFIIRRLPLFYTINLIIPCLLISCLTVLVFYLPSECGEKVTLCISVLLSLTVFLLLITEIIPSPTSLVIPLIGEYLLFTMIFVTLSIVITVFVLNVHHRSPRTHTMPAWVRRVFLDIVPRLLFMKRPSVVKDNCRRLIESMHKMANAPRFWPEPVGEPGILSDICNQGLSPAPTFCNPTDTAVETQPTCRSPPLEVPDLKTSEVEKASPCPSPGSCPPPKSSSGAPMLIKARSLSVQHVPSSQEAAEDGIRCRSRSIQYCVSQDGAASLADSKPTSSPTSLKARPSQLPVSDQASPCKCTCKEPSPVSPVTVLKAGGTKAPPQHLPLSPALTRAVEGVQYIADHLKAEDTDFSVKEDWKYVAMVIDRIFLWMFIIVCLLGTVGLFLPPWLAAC
T7 sequence (P12392 21-495 limits assumed): as the sequence (P12392 21-495 limits assumed) above
T4 sequence (P09483 31-630 limits assumed): as the sequence (P09483 31-630 limits assumed) above
T4 sequence (P12390 25-500 limits assumed): as the sequence (P12390 25-500 limits assumed) above

Row | Compound | IC50 [1] | IC50 [2] | IC50 [3] | IC50 [4] | inhibition at 10 µM ([1]; HEK-293T, read-out: inhibition of peak current amplitude, SEM) | selectivity index (SI) [2] | IC50 [5] | IC50 [6] | IC50 [7] | IC50 [8] | IC50 [9] | IC50 [10]
1 | CC[C@H](C)[C@@H]1NC(=O)[C@H](CCC(=O)O)NC(=O)[C@@H]2CCCN2C(=O)[C@H](Cc2cnc[nH]2)NC(=O)[C@H](CC(=O)O)NC(=O)[C@H](Cc2ccc(O)cc2)NC(=O)[C@H](CC(N)=O)NC(=O)[C@@H]2CSSC[C@H](NC(=O)CN)C(=O)N[C@@H](CSSC[C@@H](C(N)=O)NC1=O)C(=O)N[C@@H](CO)C(=O)N[C@@H](CC(=O)O)C(=O)N1CCC[C@H]1C(=O)N[C@@H](CCCNC(=N)N)C(=O)N2 [Vc1.1, reference compound] | 2.4 nM | – | – | – | – | – | – | – | – | – | – | –
2 | CC[C@H](C)[C@@H]1NC(=O)[C@H](Cc2cnc[nH]2)NC(=O)[C@@H]2CCCN2C(=O)[C@H](CC(N)=O)NC(=O)[C@H](CC(N)=O)NC(=O)[C@H](C(C)C)NC(=O)[C@H](CC(N)=O)NC(=O)[C@@H]2CSSC[C@H](NC(=O)CN)C(=O)N[C@@H](CSSC[C@@H](C(N)=O)NC1=O)C(=O)N[C@@H](CO)C(=O)N[C@@H](Cc1cnc[nH]1)C(=O)N1CCC[C@H]1C(=O)N[C@@H](C)C(=O)N2 [RegIIA, reference compound] (H-GCCSHPACNVNNPHIC-NH2; disulfide 2-8, 3-16) | – | 34.5 nM | > 1000 nM | – | – | – | – | – | – | – | – | –
3 | C[C@@H]1NC(=O)[C@@H]2CCCN2C(=O)[C@H](Cc2c[nH]cn2)NC(=O)[C@H](CO)NC(=O)[C@@H]2CSSC[C@@H](C(N)=O)NC(=O)[C@H](Cc3ccccc3)NC(=O)[C@H](Cc3ccc(O)cc3)NC(=O)[C@@H]3CCCN3C(=O)[C@H](CC(N)=O)NC(=O)[C@H](CC(N)=O)NC(=O)CNC(=O)[C@H](CO)NC(=O)[C@H](CSSC[C@H](NC(=O)CN)C(=O)N2)NC1=O [Lt1.3-II] (H-GCCSHPACSGNNPYFC-NH2; disulfide 2-8, 3-16) | > 10000 nM | 44.8 nM | – | > 10 µM | 3.2 ± 1.8% | > 200 | > 10 µM | > 10 µM | > 10 µM | > 10 µM | > 10 µM | > 10 µM
